# Laboratory results as given in patent US10815275B2, “Antimicrobial peptoids with improved selectivity and use thereof” (priority 2018, dated 2020).
# Non-standard residues stand in square brackets, D forms with d. Residues, ends and D or L forms follow the SMILES beside them. Nspe = C[C@H](NCC(=O)O)c1ccccc1; Nlys = NCCCCNCC(=O)O
# Tests used:
# red blood cells = test: Hemolytic activity on red blood cells; format: cell-based, mouse
# Outline: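 Washed mouse red blood cells (10% v/v in PBS, pH 7.4) incubated with peptoids for 1 h at 37 °C; released haemoglobin read at 540 nm. % hemolysis normalised to 0.1% Triton X-100 (100%) and PBS blank; HD10, HD50 derived, Hmax taken at 200 μM top concentration.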
# B. subtilis = format: cell-based; settings: LB medium, 18 h
# Outline: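 B. subtilis or E. coli DH5α grown 18 h at 37 °C in LB, diluted to 2×10^5 CFU/mL and exposed to 2-fold serial peptoid dilutions for 18 h at 37 °C. Growth read by A600; MIC taken as lowest concentration fully suppressing growth, averaged over three independent experiments.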
# S. aureus (ATCC25923) = test: MIC in multidrug-resistant bacteria panel, modified microdilution; format: cell-based; settings: overnight, 37° C.
# Description: (§1) Minimum inhibitory concentrations of the prepared peptoids for multidrug-resistant bacteria were measured using a modified microdilution method in Difco Mueller Hinton medium, and tests were done on a panel of bacterial pathogens which have resistance and tolerance against common antibiotics.
# (§2) Briefly, a peptoid concentrate, which is 10-fold more concentrated than a final concentration, was serially diluted with a medium containing 0.2% bovine serum albumin and 0.01% acetic acid. 10 μL of the 10-fold concentrated peptoid concentrate and 90 μL of Muller Hinton medium were added to each well of a 96-well polypropylene microtitre plate. Bacteria were added to the plate so that a final concentration thereof was 2×10^5 CFU/mL, and then incubated overnight at a temperature of 37° C. The minimum inhibitory concentration was defined as a concentration at which no bacterial growth is observed.
# [1] = tested on: S. epidermidis (ET-024 MRSA); test: as above; format: cell-based; settings: overnight, 37° C.
# Description: as §1, §2
# E. coli (63103 ESBL) = test: as above; format: cell-based; settings: overnight, 37° C.
# Description: as §1, §2
# [2] = tested on: S. aureus strain KCTC1621; format: cell-based; settings: strain KCTC1621
# Outline: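 Broth microdilution used 2×10^5 CFU/mL in cation-adjusted Mueller Hinton broth containing 0.2% BSA and 0.01% acetic acid, with 2-fold serial peptoid dilutions and 18 h at 37 °C. Growth was read at A600. MIC was the lowest concentration fully suppressing growth, averaged over three independent experiments.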
# E. coli strain ATCC25922 = format: cell-based; settings: strain ATCC25922
# Outline: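 Broth microdilution in cation-adjusted Mueller Hinton Broth used 2×10^5 CFU/mL in medium with 0.2% BSA and 0.01% acetic acid. Peptoids were 2-fold serially diluted, and plates were incubated 18 hours at 37° C. with absorbance read at 600 nm. MIC was the lowest concentration completely suppressing growth, averaged over three independent experiments; MBC was also determined.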
smiles,measurement,setting,value
C[C@@H](c1ccccc1)N(CC(N)=O)C(=O)CN(C(=O)CN(CCCCN)C(=O)CN(C(=O)CN(C(=O)CN(CCCCN)C(=O)CN(C(=O)CN(C(=O)CN(CCCCN)C(=O)CN(C(=O)CN(C(=O)CNCCCCN)[C@@H](C)c1ccccc1)[C@@H](C)c1ccccc1)[C@@H](C)c1ccccc1)[C@@H](C)c1ccccc1)[C@@H](C)c1ccccc1)[C@@H](C)c1ccccc1)[C@@H](C)c1ccccc1 [compound 1] (H-[Nlys][Nspe][Nspe][Nlys][Nspe][Nspe][Nlys][Nspe][Nspe][Nlys][Nspe][Nspe]-NH2),Hmax (%),"red blood cells; Table 6, hemolysis rate at 200 μM",113.4 ± 2.0%
same,HD10,"red blood cells; Table 6, peptoid concentration causing 10% hemolysis, highest concentration 200 μM, in µM (unit assumed)",1.2
same,HD50,"red blood cells; Table 6, peptoid concentration causing 50% hemolysis, highest concentration 200 μM, in µM (unit assumed)",42.8
same,Hmax (%),"red blood cells; Table 13, hemolysis rate at highest concentration 200 μM",100%
same,MIC B. subtilis,B. subtilis,0.8 µM
same,minimum inhibitory concentration S. aureus (ATCC25923),S. aureus (ATCC25923),1.6
same,minimum inhibitory concentration S. epidermidis (ET-024 MRSA),[1],<0.8 to 0.8
same,minimum inhibitory concentration E. coli (63103 ESBL),E. coli (63103 ESBL),1.6
same,MBC S. aureus,[2],1.6 µM
same,MBC E. coli,E. coli strain ATCC25922,3.1 µM
